# Laboratory results from patent US8492559B2, “Substituted indole compounds” (Gruenenthal GmbH, priority 2009, dated 2013).
# Target: T1, human B1R receptor (hB1R) (Homo sapiens, UniProt P46663)
# T1 construct: expressed in transfected cells; host or cells: CHO K1 cells
# T1 sequence (P46663 1-353): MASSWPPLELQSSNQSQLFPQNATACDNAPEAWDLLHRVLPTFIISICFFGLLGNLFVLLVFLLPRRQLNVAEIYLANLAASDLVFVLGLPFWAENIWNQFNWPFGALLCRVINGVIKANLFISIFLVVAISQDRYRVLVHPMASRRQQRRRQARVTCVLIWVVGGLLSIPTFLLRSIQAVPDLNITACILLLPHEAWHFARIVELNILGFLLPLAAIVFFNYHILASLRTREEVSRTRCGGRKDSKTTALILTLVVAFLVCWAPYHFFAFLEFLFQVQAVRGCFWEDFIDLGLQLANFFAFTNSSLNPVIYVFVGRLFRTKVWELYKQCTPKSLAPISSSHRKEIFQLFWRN
# Assay: Functional investigation on the bradykinin 1 receptor (B1R), FLIPR Ca2+ assay, hB1R cells
# Type: cell-based
# Details: 10 μM test substance; CHO K1 cells with human B1R; agonist Lys-Des-Arg9 bradykinin; % of maximum achievable inhibition; 10 µM
# Description: The agonistic or antagonistic action of substances can be quantified on the bradykinin 1 receptor (B1R) of the human and rat species with ectopically expressing cell lines (CHO K1 cells) and with the aid of a Ca^2+-sensitive dye (Fluo-4) using a fluorescent imaging plate reader (FLIPR). The indication in % activation is based on the Ca^2+ signal after addition of Lys-Des-Arg^9 bradykinin (0.5 nM) or Des-Arg^9 bradykinin (100 nM). Antagonists lead to a suppression of the Ca^2+ influx following administration of the agonist. The % inhibition in comparison with the maximum achievable inhibition is indicated.
# 1. Functional Investigation on the Bradykinin 1 Receptor (B1R)
# The agonistic or antagonistic action of substances can be determined on the bradykinin 1 receptor (B1R) of the human and rat species with the following assay. According to this assay, the Ca^2+ inflow through the channel is quantified with the aid of a Ca^2+-sensitive dye (Fluo-4 type, Molecular Probes Europe BV, Leiden, Netherlands) in a fluorescent imaging plate reader (FLIPR, Molecular Devices, Sunnyvale, USA).
# Chinese hamster ovary cells (CHO K1 cells) which are stably transfected with the human B1R gene (hB1R cells) or the B1R gene of the rat (rB1R cells) are used. For functional investigations these cells are plated-out onto black 96-well plates with a clear base (BD Biosciences, Heidelberg, Germany or Greiner, Frickenhausen, Germany) in a density of 20,000-35,000 cells/well. Overnight the cells are incubated at 37° C. and 5% CO2 in culture medium (hB1R cells: Ham's Nutrient Mixture F12, Gibco Invitrogen GmbH, Karlsruhe, Germany or DMEM, Sigma-Aldrich, Taufkirchen, Germany; rB1R cells: D-MEM/F12, Gibco Invitrogen, Karlsruhe, Germany) with 10 vol. % FBS (foetal bovine serum, Gibco Invitrogen GmbH, Karlsruhe, Germany or PAN Biotech GmbH, Aidenbach, Germany).
# On the following day the cells are loaded with 2.13 μM Fluo-4 (Molecular Probes Europe BV, Leiden, Netherlands) in HBSS buffer (Hank's buffered saline solution, Gibco Invitrogen GmbH, Karlsruhe, Germany) with 2.5 mM probenecid (Sigma-Aldrich, Taufkirchen, Germany) and 10 mM HEPES (Sigma-Aldrich, Taufkirchen, Germany) for 60 min at 37° C. The plates are subsequently washed twice with HBSS buffer, and HBSS buffer which additionally contains 0.1% BSA (bovine serum albumin; Sigma-Aldrich, Taufkirchen, Germany), 5.6 mM glucose and 0.05% gelatine (Merck KGaA, Darmstadt, Germany) is added. After a further incubation of 20 minutes at room temperature, the plates are inserted into the FLIPR for Ca^2+ measurement.
# Alternatively they are washed with buffer A (15 mM HEPES, 80 mM NaCl, 5 mM KCl, 1.2 mM CaCl2, 0.7 mM MgSO4, 2 g/l glucose, 2.5 mM probenecid) and loaded with buffer A with added 2.5 μM Fluo-4 and 0.025% Pluronic F127 (Sigma-Aldrich, Taufkirchen, Germany). The cells are then washed twice with buffer A and incubated for 30 minutes with buffer A, which additionally contains 0.05% BSA and 0.05% gelatine, at room temperature and then used for Ca^2+ measurement in the FLIPR. The Ca^2+-dependent fluorescence is measured here before and after addition of substances (λex=488 nm, λem=540 nm). The quantification is performed by measuring the highest fluorescence intensity (FC, fluorescence counts) over time.
# The FLIPR protocol comprises two additions of substance. Test substances (10 μM) are first pipetted onto the cells and the Ca^2+ inflow is compared with the control (hB1R: Lys-Des-Arg^9 bradykinin>=50 nM; rB1R: Des-Arg^9 bradykinin 10 μM). The value in % activation based on the Ca^2+ signal after addition of Lys-Des-Arg^9 bradykinin (>=50 nM) or Des-Arg^9 bradykinin (10 μM) is obtained therefrom. After incubation for 10-20 minutes, Lys-Des-Arg^9 bradykinin (hB1R) or Des-Arg^9 bradykinin (rB1R) is applied in the EC80 concentration and the inflow of Ca^2+ is likewise determined.
# Antagonists lead to a suppression of the Ca^2+ inflow. The % inhibition in comparison with the maximum achievable inhibition is calculated. […]
row,SMILES,"B1R antagonism, human [10 μM] % inhibition [%]"
1,"O=C(CCn1ccc2ccc(N3Cc4cccc(Cl)c4C3=O)cc21)N1CCC2(CC1)CCN(c1ccncc1)CC2 [G_CC-67, 7-Chloro-2-[1-[3-oxo-3-(3-pyridin-4-yl-3,9-diazaspiro[5.5]undecan-9-yl)-propyl]-1H-indol-6-yl]-2,3-dihydro-isoindol-1-one]",99

# Same assay, conditions: CHO-K1, 10 μM test substance; CHO K1 cells with human B1R; agonist Lys-Des-Arg9 bradykinin; % of maximum achievable inhibition; read-out: B1R antagonism, human [10 μM] % inhibition
row,SMILES,inhibition at 10 µM [%]
1,"Cc1cc(S(=O)(=O)Nc2cccc3ccn(CCC(=O)N4CCN(CC5CCN(C)CC5)CC4)c23)c(C)cc1Cl [G_CC-62, 4-Chloro-2,5-dimethyl-N-[1-[3-[4-[(1-methyl-piperidin-4-yl)-methyl]-piperazin-1-yl]-3-oxo-propyl]-1H-indol-7-yl]-benzenesulfonic acid amide]",94
2,"COc1cc(C)c(S(=O)(=O)Nc2ccc3ccn(CC(=O)N(C)CCCN4CCN(c5ccncc5)CC4)c3c2)c(C)c1 [G_CC-76, 2-[6-[[(4-Methoxy-2,6-dimethyl-phenyl)sulfonyl]amino]-1H-indol-1-yl]-N-methyl-N-[3-(4-pyridin-4-yl-piperazin-1-yl)-propyl]-acetamide]",92

# Results, then the compound that gave them:
row,inhibition at 10 µM [%],SMILES
1,100,"COc1cc(C)c(S(=O)(=O)Nc2cccc3ccn(CCC(=O)N4CCN(CC5CCN(C)CC5)CC4)c23)c(C)c1 [G_CC-43, 4-Methoxy-2,6-dimethyl-N-[1-[3-[4-[(1-methyl-piperidin-4-yl)-methyl]-piperazin-1-yl]-3-oxo-propyl]-1H-indol-7-yl]-benzenesulfonic acid amide]"
2,100,"COc1cc(C)c(S(=O)(=O)Nc2cccc3ccn(CCC(=O)NCCC4CCN(c5ccncc5)CC4)c23)c(C)c1 [G_CC-47, 3-[7-[[(4-Methoxy-2,6-dimethyl-phenyl)sulfonyl]amino]-1H-indol-1-yl]-N-[2-(1-pyridin-4-yl-piperidin-4-yl)-ethyl]-propionamide]"
3,99,"COc1cc(C)c(S(=O)(=O)Nc2cccc3ccn(CCC(=O)N4CCC5(CC4)CCN(c4ccncc4)CC5)c23)c(C)c1 [G_CC-54, 4-Methoxy-2,6-dimethyl-N-[1-[3-oxo-3-(3-pyridin-4-yl-3,9-diazaspiro[5.5]undecan-9-yl)-propyl]-1H-indol-7-yl]-benzenesulfonic acid amide]"
4,100,"COc1cc(C)c(S(=O)(=O)Nc2cccc3ccn(CC(=O)N(C)CCCN4CCN(c5ccncc5)CC4)c23)c(C)c1 [G_CC-88, 2-[7-[[(4-Methoxy-2,6-dimethyl-phenyl)sulfonyl]amino]-1H-indol-1-yl]-N-methyl-N-[3-(4-pyridin-4-yl-piperazin-1-yl)-propyl]-acetamide]"
5,100,"COc1cc(C)c(S(=O)(=O)Nc2cccc3ccn(CC(=O)N4CCC5(CC4)CCN(c4ccncc4)CC5)c23)c(C)c1 [G_CC-91, 4-Methoxy-2,6-dimethyl-N-[1-[2-oxo-2-(3-pyridin-4-yl-3,9-diazaspiro-[5.5]undecan-9-yl)-ethyl]-1H-indol-7-yl]-benzenesulfonic acid amide]"
